In patent US11649242B2, “Pyrrolopyrrole compositions as pyruvate kinase (PKR) activators” (FORMA Therapeutics, Inc., priority 2017, dated 2023):

Columns and labels:
Assay type in all cases: biochemical
PKR(R510Q) = PKR(R510Q) (Homo sapiens, UniProt P30613, R510Q); test: Luminescence Assay Protocol (Kinase Glo Plus), PKR(R510Q/without FBP); details: PKRR510Q, without FBP; for activation at 1.54 µM / F - AC50 LUM KGP woFBP % Fold @ 1.54 μM mean: compound 1.54 μM; for activation at 1.54 µM: read-out: F - AC50 LUM KGP woFBP % Fold @ 1.54 μM mean; for AC50: gmean, read-out: D - AC50 LUM KGP woFBP AC50 μM gmean; for Emax: read-out: E - AC50 LUM KGP woFBP MAX % FOLD mean
Description: (§1) Example 47: PKR(Wt/without FBP), PKR(G332S/with FBP), PKR(R510Q/without FBP)
(§2) The phosphorylation of Adenosine-5′-diphosphate (ADP) by various mutants of PKR was determined by the Kinase Glo Plus Assay (Promega) in the presence or absence of FBP [D-Fructose-1,6-diphosphate; BOC Sciences, CAS: 81028-91-3] as follows. Unless otherwise indicated, all reagents were purchased from Sigma-Aldrich. All reagents were prepared in buffer containing 50 mM Tris-HCl, 100 mM KCl, 5 mM MgCl2, and 0.01% Triton X100, 0.03% BSA, and 1 mM DTT. Enzyme and PEP [Phospho(enol) pyruvic acid] were added at 2× to all wells of an assay-ready plate containing serial dilutions of test compounds or DMSO vehicle. Final enzyme concentrations for PKR(wt), PKR(R510Q), and PKR(G332S) were 0.8 nM, 0.8 nM, and 10 nM respectively. Final PEP concentration was 100 μM. The Enzyme/PEP mixture was incubated with compounds for 30 minutes at RT before the assay was initiated with the addition of 2×ADP [Adenosine-5′-diphosphate] and KinaseGloPlus. Final concentration of ADP was 100 μM. […] For assays containing FBP, that reagent is added at 30 μM upon reaction initiation. Reactions were allowed to progress for 45 minutes at RT until luminescence was recorded by the BMG PHERAstar FS Multilabel Reader. All compounds were tested in triplicate at concentrations ranging from 42.5 μM to 2.2 nM in 0.83% DMSO.
(§3) Luminescence values were converted to % Fold increase by normalizing to the average of the DMSO control and multiplying by 100. Max, min, slope and AC50 were determined by the standard four parameter fit algorithm of ActivityBase XE Runner. Compounds were evaluated with three parameters—AC50, MAX % Fold, and % Fold@1.54 μM (FIG. 1). The AC50 value for a compound is the concentration […] corresponding to the midway between the maximum and minimum values of the four parameter logistic curve fit (i.e., at which the % fold increase along the four parameter logistic curve fit is halfway between MAX % Fold and MIN % Fold (% Fold Midpoint)), MAX % Fold is the highest fold increase observed at any concentration of compound, and % Fold@1.54 μM is the fold increase at a compound concentration of 1.54 μM. The parameter % Fold@1.54 μM was selected to capture elements of both the AC50 and MAX % Fold and to provide a ranking based on both potency and effect. The compound concentration of 1.54 μM was chosen as one that can optimally differentiate the set of compounds based on the range of activities observed.
(§4) As set forth in Tables 6 and 7 below, AC50 values (columns A, D, G) are defined as follows: ≤0.1 μM (+++); >0.1 μM and ≤1.0 μM (++); >1.0 μM and ≤40 μM (+); >40 μM (0). Max % FOLD values (columns B, E, H) are defined as follows: ≤75% (+); >75% and ≤250% (++); >250% and ≤500% (+++). % Fold@1.54 μM values (columns C, F, I) are defined as follows: ≤75% (+); >75% and ≤250% (++); >250% and ≤500% (+++).

PKR(wt) = PKR(wt) (Homo sapiens, UniProt P30613); test: Luminescence Assay Protocol (Kinase Glo Plus), PKR(Wt/without FBP); details: without FBP; for activation at 1.54 µM / I - AC50 LUM KGP woFBP % Fold @ 1.54 μM mean: compound 1.54 μM; for activation at 1.54 µM: read-out: I - AC50 LUM KGP woFBP % Fold @ 1.54 μM mean; for AC50: gmean, read-out: G - AC50 LUM KGP woFBP AC50 μM gmean; for Emax / H - AC50 LUM KGP woFBP MAX % FOLD mean: highest % fold increase at any concentration; for Emax: read-out: H - AC50 LUM KGP woFBP MAX % FOLD mean
Description: as §1, §2, §3, §4

PKR(G332S) = PKR(G332S) (Homo sapiens, UniProt P30613, G332S); test: Luminescence Assay Protocol (Kinase Glo Plus), PKR(G332S/with FBP); details: PKRG332S, with FBP; for activation at 1.54 µM: read-out: C - AC50 LUM KGP FBP % Fold @ 1.54 μM mean; for AC50: gmean, read-out: A - AC50 LUM KGP FBP AC50 μM gmean; for Emax: read-out: B - AC50 LUM KGP FBP MAX % FOLD mean
Description: as §1, §2, §3, §4

[1] = highest % fold increase at any concentration

Chain of PKR(R510Q) (P30613 whole entry R510Q): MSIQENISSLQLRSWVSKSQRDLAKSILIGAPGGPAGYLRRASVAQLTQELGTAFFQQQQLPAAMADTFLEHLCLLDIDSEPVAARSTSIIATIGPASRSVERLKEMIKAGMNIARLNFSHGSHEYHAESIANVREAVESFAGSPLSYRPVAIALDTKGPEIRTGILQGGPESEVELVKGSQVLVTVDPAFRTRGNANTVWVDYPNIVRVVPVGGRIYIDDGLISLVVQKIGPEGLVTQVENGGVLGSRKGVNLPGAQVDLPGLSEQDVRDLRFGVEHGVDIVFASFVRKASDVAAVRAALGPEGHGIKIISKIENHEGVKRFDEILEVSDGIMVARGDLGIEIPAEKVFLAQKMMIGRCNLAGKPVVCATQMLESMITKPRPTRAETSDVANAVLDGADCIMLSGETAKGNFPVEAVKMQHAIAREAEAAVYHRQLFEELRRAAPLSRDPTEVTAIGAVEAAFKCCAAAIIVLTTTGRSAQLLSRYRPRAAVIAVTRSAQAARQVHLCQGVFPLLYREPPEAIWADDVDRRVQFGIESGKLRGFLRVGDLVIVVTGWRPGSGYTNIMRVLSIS
Chain of PKR(wt) (P30613 whole entry): as the sequence (P30613 whole entry R510Q) above, with Q510R counted along it
Chain of PKR(G332S) (P30613 whole entry G332S): as the sequence (P30613 whole entry R510Q) above, with G332S, Q510R counted along it

Row | activation at 1.54 µM (PKR(R510Q)) [%] | AC50 (PKR(R510Q)) [µM] | Emax (PKR(R510Q); [1]) [%] | activation at 1.54 µM (PKR(wt)) [%] | AC50 (PKR(wt)) [µM] | Emax (PKR(wt)) [%] | activation at 1.54 µM (PKR(G332S); compound 1.54 μM) [%] | AC50 (PKR(G332S)) [µM] | Emax (PKR(G332S); [1]) [%] | I - AC50 LUM KGP woFBP % Fold @ 1.54 μM mean (PKR(wt)) | H - AC50 LUM KGP woFBP MAX % FOLD mean (PKR(wt)) | F - AC50 LUM KGP woFBP % Fold @ 1.54 μM mean (PKR(R510Q)) | E - AC50 LUM KGP woFBP MAX % FOLD mean (PKR(R510Q); [1]) | C - AC50 LUM KGP FBP % Fold @ 1.54 μM mean (PKR(G332S); compound 1.54 μM) | B - AC50 LUM KGP FBP MAX % FOLD mean (PKR(G332S); [1]) | SMILES
1 | 75 to 250 | > 40 | 75 to 250 | 75 to 250 | ≤ 0.1 | 75 to 250 | 75 to 250 | > 40 | 75 to 250 | – | – | – | – | – | – | CN1CCOc2ccc(S(=O)(=O)N3CC4=C(CN(C(=O)C(CO)c5ccccc5)C4)C3)cc21 (centres unmarked) [Example 46, 3-hydroxy-1-(5-((4-methyl-3,4-dihydro-2H-benzo[b][1,4]oxazin-6-yl)sulfonyl)-3,4,5,6-tetrahydropyrrolo[3,4-c]pyrrol-2(1H)-yl)-2-phenylpropan-1-one]
2 | 250 to 500 | ≤ 0.1 | 250 to 500 | 250 to 500 | ≤ 0.1 | 250 to 500 | 75 to 250 | ≤ 0.1 | 75 to 250 | – | – | – | – | – | – | O=C(C(CO)c1ccccc1)N1CC2=C(C1)CN(S(=O)(=O)c1ccc(OC(F)F)cc1)C2 (centres unmarked) [Example 49, 1-(5-((4-(difluoromethoxy)phenyl)sulfonyl)-3,4,5,6-tetrahydropyrrolo[3,4-c]pyrrol-2(1H)-yl)-3-hydroxy-2-phenylpropan-1-one]
3 | 75 to 250 | 1 to 40 | 250 to 500 | 250 to 500 | 0.1 to 1 | 250 to 500 | 75 to 250 | 0.1 to 1 | 75 to 250 | – | – | – | – | – | – | O=C([C@@H]1CCOC1)N1CC2=C(C1)CN(S(=O)(=O)c1ccc(OC(F)F)cc1)C2 [Example 14, (R)-(5-((4-(difluoromethoxy)phenyl)sulfonyl)-3,4,5,6-tetrahydropyrrolo[3,4-c]pyrrol-2(1H)-yl)(tetrahydrofuran-3-yl)methanone]
4 | 250 to 500 | 1 to 40 | 250 to 500 | 250 to 500 | 0.1 to 1 | 250 to 500 | 75 to 250 | 0.1 to 1 | 75 to 250 | – | – | – | – | – | – | O=C(C1COc2ccccc21)N1CC2=C(C1)CN(S(=O)(=O)c1ccc3ncsc3c1)C2 (centres unmarked) [Example 43, (5-(benzo[d]thiazol-6-ylsulfonyl)-3,4,5,6-tetrahydropyrrolo[3,4-c]pyrrol-2(1H)-yl)(2,3-dihydrobenzofuran-3-yl)methanone]
5 | 75 to 250 | 0.1 to 1 | 250 to 500 | 75 to 250 | 0.1 to 1 | 75 to 250 | 75 to 250 | > 40 | 75 to 250 | – | – | – | – | – | – | CC(C)(CO)C(=O)N1CC2=C(C1)CN(S(=O)(=O)c1ccc3ncsc3c1)C2 [Example 19, 1-(5-(benzo[d]thiazol-6-ylsulfonyl)-3,4,5,6-tetrahydropyrrolo[3,4-c]pyrrol-2(1H)-yl)-3-hydroxy-2,2-dimethylpropan-1-one]
6 | – | > 40 | – | – | 1 to 40 | – | – | > 40 | – | ++ (>75% and ≤250% (++)) | ++ (>75% and ≤250% (++)) | – | – | – | – | O=C(C1CCCOC1)N1CC2=C(C1)CN(S(=O)(=O)c1cnc3c(c1)OCCO3)C2 (single isomer, unassigned) [Example 6, (S or R)-(5-((2,3-dihydro-[1,4]dioxino[2,3-b]pyridin-7-yl)sulfonyl)-3,4,5,6-tetrahydropyrrolo[3,4-c]pyrrol-2(1H)-yl)(tetrahydro-2H-pyran-3-yl)methanone]
7 | 75 to 250 | 1 to 40 | 250 to 500 | 75 to 250 | 0.1 to 1 | 75 to 250 | 75 to 250 | 0.1 to 1 | 75 to 250 | – | – | – | – | – | – | O=C([C@H](CO)c1ccccc1)N1CC2=C(C1)CN(S(=O)(=O)c1ccc(C(F)(F)F)nc1)C2 [Example 52, (2S)-3-hydroxy-2-phenyl-1-(5-{[6-(trifluoromethyl)pyridin-3-yl]sulfonyl}-1H,2H,3H,4H,5H,6H-pyrrolo[3,4-c]pyrrol-2-yl)propan-1-one]
8 | 75 to 250 | ≤ 0.1 | 75 to 250 | 75 to 250 | ≤ 0.1 | 75 to 250 | 75 to 250 | > 40 | 75 to 250 | – | – | – | – | – | – | CC1(C)CNc2cc(S(=O)(=O)N3CC4=C(CN(C(=O)[C@H](CO)c5ccccc5)C4)C3)ccc2O1 [Example 32, (S)-1-(5-((2,2-dimethyl-3,4-dihydro-2H-benzo[b][1,4]oxazin-6-yl)sulfonyl)-3,4,5,6-tetrahydropyrrolo[3,4-c]pyrrol-2(1H)-yl)-3-hydroxy-2-phenylpropan-1-one]
9 | – | 1 to 40 | 250 to 500 | 75 to 250 | 1 to 40 | 75 to 250 | 75 to 250 | > 40 | 75 to 250 | – | – | ++ (>75% and ≤250% (++)) | – | – | – | O=C(C1CCCOC1)N1CC2=C(C1)CN(S(=O)(=O)c1ccc3c(c1)NCCO3)C2 (single isomer, unassigned) [Example 33, (S or R)-(5-((3,4-dihydro-2H-benzo[b][1,4]oxazin-6-yl)sulfonyl)-3,4,5,6-tetrahydropyrrolo[3,4-c]pyrrol-2(1H)-yl)(tetrahydro-2H-pyran-3-yl)methanone]
10 | 250 to 500 | – | 250 to 500 | 75 to 250 | – | 75 to 250 | 75 to 250 | – | 75 to 250 | – | – | – | – | – | – | O=C([C@H](CO)c1ccccc1)N1CC2=C(C1)CN(S(=O)(=O)c1cnc3c(c1)OCCO3)C2 (single isomer, unassigned) [Example 1]
11 | – | 1 to 40 | – | – | 0.1 to 1 | – | – | 0.1 to 1 | – | ++ (>75% and ≤250% (++)) | +++ (>250% and ≤500% (+++)) | ++ (>75% and ≤250% (++)) | +++ (>250% and ≤500% (+++)) | ++ (>75% and ≤250% (++)) | ++ (>75% and ≤250% (++)) | O=C(C1CCCOC1)N1CC2=C(C1)CN(S(=O)(=O)c1ccccn1)C2 (single isomer, unassigned) [Example 45, (S or R)-(5-(pyridin-2-ylsulfonyl)-3,4,5,6-tetrahydropyrrolo[3,4-c]pyrrol-2(1H)-yl)(tetrahydro-2H-pyran-3-yl)methanone]
12 | 75 to 250 | 1 to 40 | 75 to 250 | 75 to 250 | 0.1 to 1 | 75 to 250 | 75 to 250 | > 40 | 75 to 250 | – | – | – | – | – | – | COCC1(C(=O)N2CC3=C(C2)CN(S(=O)(=O)c2ccc4c(c2)NCCO4)C3)CC1 [Example 36, (5-((3,4-dihydro-2H-benzo[b][1,4]oxazin-6-yl)sulfonyl)-3,4,5,6-tetrahydropyrrolo[3,4-c]pyrrol-2(1H)-yl)(1-(methoxymethyl)cyclopropyl)methanone]
